The source of these data is patent US20080011613A1, “Method of electrolytically depositing a pharmaceutical coating onto a conductive osteal implant” (priority 2004, published 2008).

The data set in a line: Precipitation boundary of etidronate in the presence of Ca2+ by NaOH titration. As to conditions: Ca:etidronate molar ratio 2:1, titration with NaOH. Format: physicochemical. The method, then: Etidronic acid has a molecular weight of 206.03 (Fluka, Switzerland). The precipitation boundary of etidronate in the presence of Ca^2+ was determined by titration and used for choosing the solution conditions suitable for electrolytic deposition (ELD). A series of 50 mL solutions containing etidronate (15, 10, 9, 5, 4, 2.5, 1.9, 1.25, 1.22, 1.15, 1.10, and 0.625 mM) and Ca(NO3)2 of different concentrations, with Ca:etidronate molar ratio all fixed at 2:1, were prepared and titrated with NaOH solutions until the first visual sign of turbidity (end point/the precipitation boundary). The pH and NaOH volume consumption at end points were recorded and the Ca^2+ and etidronate concentrations at this point was calculated using equation (Eq. 3): [formula] where C is the titrate (etidronate or Ca^2+) concentration (mM) at the end point, C0 is the titrate concentration (mM) before titration, and VNaOH is NaOH volume (mL) consumption at the end point of titration.
After the precipitation boundary was established, etidronate 5.0 mM, Ca^2+ 10 mM, and pH 4.50 were chosen as the solution conditions for ELD. […] This volume also provided reasonable space to accommodate the experiment setup, that is, two electrodes and the fixture.

For `CC(O)(P(=O)(O)O)P(=O)(O)O` [etidronate, 1-hydroxy-ethylidene-1,1-diphosphonate], the “Etidronate concentration at which no precipitation could be visually judged” value was below 1.15 mM.
